Data taken from ChEMBL document CHEMBL5375952, “Discovery of Novel 8-Hydroxyquinoline Derivatives with Potent In Vitro and In Vivo Antifungal Activity” (J Med Chem, 2023).
Values after ≈ are worked out from the molar mass of the structure shown.

Key:
[1] = test system: Candida albicans; test: Antifungal activity against Candida albicans 22 assessed as fungal growth inhibition incubated for 48 hrs by broth microdilution method; format: functional
[2] = test system: Candida albicans; test: Antifungal activity against Candida albicans 21 assessed as fungal growth inhibition incubated for 48 hrs by broth microdilution method; format: functional
[3] = test system: Candida albicans; test: Antifungal activity against Candida albicans SC5314 assessed as fungal growth inhibition incubated for 48 hrs by broth microdilution method; format: functional
[4] = test system: Candida parapsilosis; test: Antifungal activity against Candida parapsilosis 107 assessed as fungal growth inhibition incubated for 48 hrs by broth microdilution method; format: functional; conditions: Lodderomyces parapsilosis
[5] = test system: Aspergillus fumigatus; test: Antifungal activity against Aspergillus fumigatus 023-12 assessed as fungal growth inhibition incubated for 48 hrs by broth microdilution method; format: functional
[6] = test system: Nakaseomyces glabratus; test: Antifungal activity against Candida glabrata 205 assessed as fungal growth inhibition incubated for 48 hrs by broth microdilution method; format: functional
[7] = test system: Cryptococcus neoformans; test: Antifungal activity against Cryptococcus neoformans 443 assessed as fungal growth inhibition incubated for 48 hrs by broth microdilution method; format: functional
[8] = test system: Nakaseomyces glabratus; test: Antifungal activity against Candida glabrata 202 assessed as fungal growth inhibition incubated for 48 hrs by broth microdilution method; format: functional
[9] = test system: Candida tropicalis; test: Antifungal activity against Candida tropicalis 184 assessed as fungal growth inhibition incubated for 48 hrs by broth microdilution method; format: functional
[10] = test system: Cryptococcus neoformans; test: Antifungal activity against Cryptococcus neoformans 445 assessed as fungal growth inhibition incubated for 48 hrs by broth microdilution method; format: functional
[11] = test system: Candida parapsilosis; test: Antifungal activity against Candida parapsilosis 125 assessed as fungal growth inhibition incubated for 48 hrs by broth microdilution method; format: functional; conditions: Lodderomyces parapsilosis
[12] = test system: Pichia kudriavzevii; test: Antifungal activity against Candida krusei 68 assessed as fungal growth inhibition incubated for 48 hrs by broth microdilution method; format: functional
[13] = test system: Candida tropicalis; test: Antifungal activity against Candida tropicalis 178 assessed as fungal growth inhibition incubated for 48 hrs by broth microdilution method; format: functional
[14] = test system: Candida tropicalis; test: Antifungal activity against Candida tropicalis 176 assessed as fungal growth inhibition incubated for 48 hrs by broth microdilution method; format: functional
[15] = test system: Cryptococcus neoformans; test: Antifungal activity against Cryptococcus neoformans 444 assessed as fungal growth inhibition incubated for 48 hrs by broth microdilution method; format: functional
[16] = Cytotoxicity against human Caco-2 cells assessed as cell growth inhibition incubated for 24 hrs by CCK8 assay; format: toxicity, cell-based
[17] = test system: Pichia kudriavzevii; test: Antifungal activity against Candida krusei 69 assessed as fungal growth inhibition incubated for 48 hrs by broth microdilution method; format: functional
[18] = test system: Candida parapsilosis; test: Antifungal activity against Candida parapsilosis 105 assessed as fungal growth inhibition incubated for 48 hrs by broth microdilution method; format: functional; conditions: Lodderomyces parapsilosis
[19] = test system: Aspergillus fumigatus; test: Antifungal activity against Aspergillus fumigatus 7544 assessed as fungal growth inhibition incubated for 48 hrs by broth microdilution method; format: functional
[20] = test system: Aspergillus fumigatus; test: Antifungal activity against Aspergillus fumigatus A assessed as fungal growth inhibition incubated for 48 hrs by broth microdilution method; format: functional
[21] = test system: Pichia kudriavzevii; test: Antifungal activity against Candida krusei 477 assessed as fungal growth inhibition incubated for 48 hrs by broth microdilution method; format: functional
[22] = test system: Nakaseomyces glabratus; test: Antifungal activity against Candida glabrata 201 assessed as fungal growth inhibition incubated for 48 hrs by broth microdilution method; format: functional

SMILES | MIC [1] | MIC [2] | MIC [3] | further results
CCN(CC)c1ccc(C(NC(=O)CCc2ccccc2)c2ccc3cccnc3c2O)cc1 (configuration not stated) | 1 µg/mL (≈ 2.2 µM) | 0.25 µg/mL (≈ 0.551 µM) | 2 µg/mL (≈ 4.41 µM) | 
COc1ccc(C(NC(=O)CC(C)C)c2ccc3cccnc3c2O)cc1OC (configuration not stated) | 0.5 µg/mL (≈ 1.27 µM) | 0.5 µg/mL (≈ 1.27 µM) | 0.5 µg/mL (≈ 1.27 µM) | 
CN1CCN(C(c2ccncc2)c2ccc3cccnc3c2O)CC1 (configuration not stated) | 4 µg/mL (≈ 12 µM) | 4 µg/mL (≈ 12 µM) | 4 µg/mL (≈ 12 µM) | 
O=C(Cc1ccccc1)NC(c1ccc(C(F)(F)F)cc1)c1ccc2cccnc2c1O (configuration not stated) | 2 µg/mL (≈ 4.58 µM) | 1 µg/mL (≈ 2.29 µM) | 1 µg/mL (≈ 2.29 µM) | 
CCC(=O)NC(c1ccccc1OC)c1ccc2cccnc2c1O (configuration not stated) | 16 µg/mL (≈ 47.6 µM) | 8 µg/mL (≈ 23.8 µM) | 4 µg/mL (≈ 11.9 µM) | 
CCN(CC)c1ccc(C(NC(=O)Cc2ccccc2)c2ccc3cccnc3c2O)cc1 (configuration not stated) | 2 µg/mL (≈ 4.55 µM) | 1 µg/mL (≈ 2.28 µM) | 0.5 µg/mL (≈ 1.14 µM) | 
COc1ccccc1C(NC(=O)Cc1ccccc1)c1ccc2cccnc2c1O (configuration not stated) | 0.125 µg/mL (≈ 0.314 µM) | < 0.125 µg/mL | 0.125 µg/mL (≈ 0.314 µM) | MIC [4]: 0.125 µg/mL (≈ 0.314 µM); MIC [5]: 2 µg/mL (≈ 5.02 µM); MIC [6]: 0.5 µg/mL (≈ 1.25 µM); MIC [7]: 0.125 µg/mL (≈ 0.314 µM); MIC [8]: 0.125 µg/mL (≈ 0.314 µM); MIC [9]: > 64 µg/mL; MIC [10]: 0.5 µg/mL (≈ 1.25 µM); MIC [11]: 0.125 µg/mL (≈ 0.314 µM); MIC [12]: 0.125 µg/mL (≈ 0.314 µM); MIC [13]: > 64 µg/mL; MIC [14]: > 64 µg/mL; MIC [15]: 0.125 µg/mL (≈ 0.314 µM); IC50 at 24 h [16]: > 64 µg/mL; MIC [17]: 0.25 µg/mL (≈ 0.627 µM); MIC [18]: 0.125 µg/mL (≈ 0.314 µM); MIC [19]: 2 µg/mL (≈ 5.02 µM); MIC [20]: 2 µg/mL (≈ 5.02 µM); MIC [21]: 0.25 µg/mL (≈ 0.627 µM); MIC [22]: 0.125 µg/mL (≈ 0.314 µM)
OCCN1CCN(C(c2ccccc2)c2ccc3cccnc3c2O)CC1 (configuration not stated) | 1 µg/mL (≈ 2.75 µM) | 1 µg/mL (≈ 2.75 µM) | 1 µg/mL (≈ 2.75 µM) | 
CCCC(=O)NC(c1ccc(N(C)C)cc1)c1ccc2cccnc2c1O (configuration not stated) | 0.5 µg/mL (≈ 1.38 µM) | 0.25 µg/mL (≈ 0.688 µM) | 0.25 µg/mL (≈ 0.688 µM) | 
CC(C)C(=O)NC(c1ccc(Cl)cc1)c1ccc2cccnc2c1O (configuration not stated) | 0.5 µg/mL (≈ 1.41 µM) | 0.25 µg/mL (≈ 0.705 µM) | 1 µg/mL (≈ 2.82 µM) | 
CC(=O)NC(c1ccc(Cl)cc1Cl)c1ccc2cccnc2c1O (configuration not stated) | 0.5 µg/mL (≈ 1.38 µM) | 0.5 µg/mL (≈ 1.38 µM) | 0.125 µg/mL (≈ 0.346 µM) | 
CC(C)C(=O)NC(c1ccc(F)c(Cl)c1)c1ccc2cccnc2c1O (configuration not stated) | 0.5 µg/mL (≈ 1.34 µM) | 0.25 µg/mL (≈ 0.671 µM) | 0.5 µg/mL (≈ 1.34 µM) | 
O=C(Cc1ccccc1)NC(c1ccc(OC(F)F)cc1)c1ccc2cccnc2c1O (configuration not stated) | 0.5 µg/mL (≈ 1.15 µM) | 0.5 µg/mL (≈ 1.15 µM) | 1 µg/mL (≈ 2.3 µM) | 
CSc1ccc(C(NC(=O)Cc2ccccc2)c2ccc3cccnc3c2O)cc1 (configuration not stated) | 4 µg/mL (≈ 9.65 µM) | 2 µg/mL (≈ 4.82 µM) | 1 µg/mL (≈ 2.41 µM) | 
CC(C)C(=O)NC(c1ccc(C(F)(F)F)cc1)c1ccc2cccnc2c1O (configuration not stated) | 2 µg/mL (≈ 5.15 µM) | 1 µg/mL (≈ 2.57 µM) | 1 µg/mL (≈ 2.57 µM) | 
CS(=O)(=O)c1ccc(C(NC(=O)Cc2ccccc2)c2ccc3cccnc3c2O)cc1 (configuration not stated) | 2 µg/mL (≈ 4.48 µM) | 1 µg/mL (≈ 2.24 µM) | 2 µg/mL (≈ 4.48 µM) | 
COc1ccc(C(NC(=O)Cc2ccccc2)c2ccc3cccnc3c2O)cc1OC (configuration not stated) | 0.5 µg/mL (≈ 1.17 µM) | 0.5 µg/mL (≈ 1.17 µM) | 0.5 µg/mL (≈ 1.17 µM) | 
O=C(Cc1ccccc1)NC(c1ccc(OC(F)(F)F)cc1)c1ccc2cccnc2c1O (configuration not stated) | 2 µg/mL (≈ 4.42 µM) | 1 µg/mL (≈ 2.21 µM) | 2 µg/mL (≈ 4.42 µM) | 
CC(C)C(=O)NC(c1ccc(F)cc1)c1ccc2cccnc2c1O (configuration not stated) | 1 µg/mL (≈ 2.96 µM) | 1 µg/mL (≈ 2.96 µM) | 1 µg/mL (≈ 2.96 µM) | 
CCCC(=O)NC(c1ccccc1)c1ccc2cccnc2c1O (configuration not stated) | 1 µg/mL (≈ 3.12 µM) | 1 µg/mL (≈ 3.12 µM) | 1 µg/mL (≈ 3.12 µM) | 
Cc1ccc(C(NC(=O)CC(C)C)c2ccc3cccnc3c2O)cc1 (configuration not stated) | 0.125 µg/mL (≈ 0.359 µM) | 0.125 µg/mL (≈ 0.359 µM) | 0.125 µg/mL (≈ 0.359 µM) | MIC [4]: 0.125 µg/mL (≈ 0.359 µM); MIC [5]: 0.25 µg/mL (≈ 0.717 µM); MIC [6]: 0.125 µg/mL (≈ 0.359 µM); MIC [7]: 0.016 µg/mL (≈ 0.0459 µM); MIC [8]: 0.125 µg/mL (≈ 0.359 µM); MIC [9]: 0.125 µg/mL (≈ 0.359 µM); MIC [10]: 0.016 µg/mL (≈ 0.0459 µM); MIC [11]: 0.125 µg/mL (≈ 0.359 µM); MIC [12]: 0.125 µg/mL (≈ 0.359 µM); MIC [13]: 0.032 µg/mL (≈ 0.0918 µM); MIC [14]: 0.032 µg/mL (≈ 0.0918 µM); MIC [15]: 0.016 µg/mL (≈ 0.0459 µM); IC50 at 24 h [16]: 32 µg/mL (≈ 91.8 µM); MIC [17]: 0.125 µg/mL (≈ 0.359 µM); MIC [18]: 0.032 µg/mL (≈ 0.0918 µM); MIC [19]: 0.5 µg/mL (≈ 1.43 µM); MIC [20]: 0.5 µg/mL (≈ 1.43 µM); MIC [21]: 0.125 µg/mL (≈ 0.359 µM); MIC [22]: 0.125 µg/mL (≈ 0.359 µM)
CSc1ccc(C(NC(=O)C(C)C)c2ccc3cccnc3c2O)cc1 (configuration not stated) | 2 µg/mL (≈ 5.46 µM) | 1 µg/mL (≈ 2.73 µM) | 2 µg/mL (≈ 5.46 µM) | 
CC(C)C(=O)NC(c1ccc(S(C)(=O)=O)cc1)c1ccc2cccnc2c1O (configuration not stated) | 1 µg/mL (≈ 2.51 µM) | 2 µg/mL (≈ 5.02 µM) | 2 µg/mL (≈ 5.02 µM) | 
